Values of other authors as cited in paper PMC11881559 (Antimicrobial Agents and Chemotherapy, 2025).

What was measured:
[1] = system: SARS-CoV-2 variants, including the wild-type, Alpha, Beta, Delta, and Omicron strains; details: cited from earlier work
[2] = system: Delta variant of the novel coronavirus; details: K18-hACE2 mice infected with Delta variant, 300 mg/kg/day; cited from earlier work

## O=C(NC1CCCC1)C(=O)[C@H](C[C@@H]1CCNC1=O)NC(=O)[C@@H]1[C@H]2CCC[C@H]2CN1C(=O)[C@@H](NC(=O)C(F)(F)F)C1CCCCC1 [RAY1216, leritrelvir]
[1]
  inhibition of SARS-CoV-2 variants in vitro: clearly inhibited
[2]
  lung viral titers and virus-induced pathology: significantly decreased lung viral titers and reduced virus-induced pathology
